Laboratory results from patent US9062041B2 (Bayer Intellectual Property GmbH, priority 2011, dated 2015).

Key:
Type in all cases: cell-based
[1] = biological target: EP4 subtype of the human PGE2 receptor (Homo sapiens, UniProt P35408); experiment: cAMP antagonism test on the human EP4 receptor (HTRF cAMP detection); settings: selectivity towards hEP4, IC50 measured by cAMP antagonism test
Excerpt: 2. Detection of Antagonism to the Human Prostaglandin E2 (Subtype EP4) Receptor Signal
The binding of PGE2 to the EP4 subtype of the human PGE2 receptor induces the activation of membrane-located adenylate cyclases and leads to the formation of cAMP. In the presence of the phosphodiesterase inhibitor IBMX, the cAMP accumulated owing to this stimulation and released by cell lysis is used in a competitive detection method. In this test, the cAMP present in the lysate competes with a fluorescence-labelled cAMP (cAMP-d2) for binding to an Eu cryptate-labelled anti-cAMP antibody.
(§1) In the absence of cellular cAMP a maximal signal is produced, which is attributable to the binding of this cAMP-d2 molecule to the antibody. After excitation of the […] at 337 nm, there is a fluorescence resonance energy transfer (FRET) to the Eu cryptate molecules of the anti-cAMP antibody (labelled therewith), followed by a long-lasting emission signal at 665 nm (and at […]). Both signals are measured in a suitable measurement instrument with a time delay, i.e. after decay of the background fluorescence. Any increase in the low FRET signal caused by prostaglandin E2 administration (measured as well ratio change=emission665 nm/emission620 nm*10000) indicates the action of antagonists.
2.2.1. Test for Antagonism (Data Per Well of a 384-Well Plate):
To a test plate with the substance solutions already added (0.05 μl; 100% DMSO, concentration range from 0.8 nM-16.5 μM) were added 4 μl of a cAMP-d2/cell suspension (312500 cells/ml). After a 20-minute preincubation at room temperature (RT), 2 μl of a 3×PGE2 solution (0.3 nM, in PBS-IBMX) were added and incubated in the presence of the agonist for a further 60 mins at RT (volume: ˜6 μl). Next the reaction was stopped by addition of 2 μl of lysis buffer and incubated for a further 20 mins at RT before the actual measurement (volume: ˜8 μl).

human PGD receptor = biological target: T1, human PGD receptor (Homo sapiens, UniProt Q13258); experiment: cAMP antagonism test on the human prostaglandin D receptor (HTRF cAMP detection); settings: selectivity towards hDP, IC50 measured by cAMP antagonism test
T1 sequence (Q13258 1-359): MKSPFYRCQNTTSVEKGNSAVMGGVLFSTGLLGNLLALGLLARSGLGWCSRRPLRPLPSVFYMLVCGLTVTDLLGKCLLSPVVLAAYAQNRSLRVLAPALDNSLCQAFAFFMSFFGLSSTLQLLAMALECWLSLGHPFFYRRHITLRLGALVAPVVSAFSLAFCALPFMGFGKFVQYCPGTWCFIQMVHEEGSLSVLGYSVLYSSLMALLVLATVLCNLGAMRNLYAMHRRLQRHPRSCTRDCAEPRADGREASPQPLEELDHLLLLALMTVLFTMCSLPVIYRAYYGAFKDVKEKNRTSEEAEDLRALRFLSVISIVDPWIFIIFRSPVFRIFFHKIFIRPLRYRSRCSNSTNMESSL
Excerpt: 3. Detection of Antagonism to the Human Prostaglandin D Receptor Signal
The binding of prostaglandin D2 to the human PGD receptor induces the activation of membrane-located adenylate cyclases and leads to the formation of cAMP. In the presence of the phosphodiesterase inhibitor IBMX, the cAMP accumulated owing to this stimulation and released by cell lysis is used in a competitive detection method. In this test, the cAMP present in the lysate competes with a fluorescence-labelled cAMP (cAMP-d2) for binding to an Eu cryptate-labelled anti-cAMP antibody.
as §1, with “cellular cAMP,” for “cellular cAMP”
3.2.1. Test for Antagonism (Data Per Well of a 384-Well Plate):
To a test plate with the substance solutions already added (0.05 μl; 100% DMSO, concentration range from 0.8 nM-16.5 μM) were added 4 μl of a cAMP-d2/cell suspension (625000 cells/ml). After a 20-minute preincubation at room temperature (RT), 2 μl of a 3×PGD2 solution (6 nM, in PBS-IBMX) were added and incubated in the presence of the agonist for a further 30 mins at RT (volume: ˜6 μl). Next the reaction was stopped by addition of 2 μl of lysis buffer and incubated for a further 20 mins at RT before the actual measurement (volume: ˜8 μl).

[2] = biological target: EP2 subtype of the human PGE2 receptor (Homo sapiens, UniProt P43116); experiment: cAMP antagonism test on the human EP2 receptor (HTRF cAMP detection); settings: hEP2 receptor, read-out: Antagonism hEP2 IC50
Excerpt: 1. Detection of Antagonism to the Human Prostaglandin E2 (Subtype EP2) Receptor Signal
The binding of PGE2 to the EP2 subtype of the human PGE2 receptor induces the activation of membrane-located adenylate cyclases and leads to the formation of cAMP. In the presence of the phosphodiesterase inhibitor IBMX, the cAMP accumulated owing to this stimulation and released by cell lysis is used in a competitive detection method. In this test, the cAMP present in the lysate competes with a fluorescence-labelled cAMP (cAMP-d2) for binding to an Eu cryptate-labelled anti-cAMP antibody.
as §1, with “cellular cAMP,” for “cellular cAMP”
1.2.1. Test for Antagonism (Data Per Well of a 384-Well Plate):
To a test plate with the substance solutions already added (0.05 μl; 100% DMSO, concentration range from 0.8 nM-16.5 μM) were added 4 μl of a cAMP-d2/cell suspension (625000 cells/ml). After a 20-minute preincubation at room temperature (RT), 2 μl of a 3×PGE2 solution (1.5 nM, in PBS-IBMX) were added and incubated in the presence of the agonist for a further 60 mins at RT (volume: ˜6 μl). Next the reaction was stopped by addition of 2 μl of lysis buffer and incubated for a further 20 mins at RT before the actual measurement (volume: ˜8 μl).

Chain of EP2 subtype of the human PGE2 receptor (P43116 whole entry): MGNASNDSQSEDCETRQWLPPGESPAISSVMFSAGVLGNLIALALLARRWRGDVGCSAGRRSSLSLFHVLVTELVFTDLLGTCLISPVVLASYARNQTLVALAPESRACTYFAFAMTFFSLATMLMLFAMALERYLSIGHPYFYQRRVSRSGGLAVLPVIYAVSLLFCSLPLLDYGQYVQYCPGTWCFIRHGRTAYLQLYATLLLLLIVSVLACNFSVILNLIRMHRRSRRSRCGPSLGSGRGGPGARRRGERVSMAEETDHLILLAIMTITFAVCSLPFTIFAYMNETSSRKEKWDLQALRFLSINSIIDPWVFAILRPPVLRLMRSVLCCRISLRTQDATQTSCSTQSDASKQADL
Chain of EP4 subtype of the human PGE2 receptor (P35408 whole entry): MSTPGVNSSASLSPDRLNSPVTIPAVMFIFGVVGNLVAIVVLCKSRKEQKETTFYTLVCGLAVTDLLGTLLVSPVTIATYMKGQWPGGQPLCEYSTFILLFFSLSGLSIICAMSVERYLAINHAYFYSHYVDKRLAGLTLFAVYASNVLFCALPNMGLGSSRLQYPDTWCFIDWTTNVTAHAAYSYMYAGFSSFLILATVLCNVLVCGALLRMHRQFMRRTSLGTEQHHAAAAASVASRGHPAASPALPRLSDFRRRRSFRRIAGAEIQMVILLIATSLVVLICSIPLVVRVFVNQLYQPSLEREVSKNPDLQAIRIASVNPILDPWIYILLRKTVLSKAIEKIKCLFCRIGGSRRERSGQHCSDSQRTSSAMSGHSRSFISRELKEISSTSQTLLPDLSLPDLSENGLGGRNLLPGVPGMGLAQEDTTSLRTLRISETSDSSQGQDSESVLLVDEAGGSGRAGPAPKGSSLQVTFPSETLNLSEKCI

| SMILES | Selectivity hEP2/hEP4 [1] | Selectivity hEP2/hDP (human PGD receptor) | IC50 [2] |
| --- | --- | --- | --- |
| Cc1c(C(=O)NCCOC(F)(F)F)ccc2nn(CC3CCN(C(=O)c4ccc(Oc5ccc(F)cc5)cc4)CC3)cc12 [Example 108, 2-({1-[4-(4-fluoro-phenoxy)benzoyl]-piperidin-4-yl}methyl)-4-methyl-N-[2-(tri-fluoromethoxy)ethyl]-2H-indazol-5-carboxamide] | xxx (xxx > 100) | xxx (xxx > 100) | 0.00646 µM |
| COCCNC(=O)c1ccc2nn(CC3CCN(C(=O)c4ccc(Oc5ccc(C#N)cc5)cc4)CC3)cc2c1C [Example 330, 2-({1-[4-(4-cyanophenoxy)benzoyl]piperidin-4-yl}methyl)-N-(2-methoxyethyl)-4-methyl-2H-indazol-5-carboxamide] | xxx (xxx > 100) | xxx (xxx > 100) | 0.00953 µM |
| COCCNC(=O)c1ccc2nn(CC3CCN(C(=O)c4ccc(-c5cc(F)cc(F)c5)c(C)c4)CC3)cc2c1C [Example 391, 2-({1-[(3′,5′-difluoro-2-methylbiphenyl-4-yl)carbonyl]piperidin-4-yl}methyl)-N-(2-methoxyethyl)-4-methyl-2H-indazol-5-carboxamide] | xxx (xxx > 100) | xxx (xxx > 100) | 0.00607 µM |
| COCCNC(=O)c1ccc2nn(CC3CN(C(=O)c4cn(C)c5ccccc45)C3)cc2c1C [Example 282, N-(2-methoxyethyl)-4-methyl-2-({1-[(1-methyl-1H-indol-3-yl)carbonyl]azetidin-3-yl}methyl)-2H-indazol-5-carboxamide] | xxx (xxx > 100) | xxx (xxx > 100) | 0.0201 µM |
| Cc1c(C(=O)NCCOCC2CC2)ccc2nn(CC3CCN(C(=O)c4ccc(C5CC5)cc4)CC3)cc12 [Example 89, 2-{[1-(4-cyclopropyl-benzoyl)piperidin-4-yl]methyl}-N-[2-(cyclopropylmethoxy)ethyl]-4-methyl-2H-indazol-5-carboxamide] | xxx (xxx > 100) | xxx (xxx > 100) | 0.0094 µM |
| COCCNC(=O)c1ccc2nn(CC3CCN(C(=O)c4ccc(C5CC5)cc4)CC3)cc2c1C [Example 20, 2-{[1-(4-cyclopropyl-benzoyl)piperidin-4-yl]methyl}-N-(2-methoxyethyl)-4-methyl-2H-indazol-5-carboxamide] | xxx (xxx > 100) | xxx (xxx > 100) | 0.00733 µM |
| Cc1cc2nn(CC3CCN(C(=O)c4ccc(S(F)(F)(F)(F)F)cc4)CC3)cc2cc1C(=O)NCCN1CCOCC1 [Example 77, 6-methyl-N-(2-morpholinoethyl)-2-({1-[4-(pentafluoro-λ^6-sulphanyl)benzoyl]piperidin-4-yl}methyl)-2H-indazol-5-carboxamide] | xxx (xxx > 100) | xxx (xxx > 100) | 0.0539 µM |
| COCCNC(=O)c1ccc2nn(CC3CN(C(=O)c4cc5cc(Cl)ccc5n4C)C3)cc2c1C [Example 171, 2-({1-[(5-chloro-1-methyl-1H-indol-2-yl)carbonyl]azetidin-3-yl}methyl)-N-(2-methoxyethyl)-4-methyl-2H-indazol-5-carboxamide] | xxx (xxx > 100) | xxx (xxx > 100) | 0.00388 µM |
| COCCNC(=O)c1ccc2nn(CC3CN(C(=O)c4ccc(OC(F)(F)F)cc4)C3)cc2c1C [Example 119, N-(2-methoxyethyl)-4-methyl-2-({1-[4-(trifluoromethoxy)benzoyl]azetidin-3-yl}methyl)-2H-indazol-5-carboxamide] |  | xxx (xxx > 100) | 0.0132 µM |
| Cc1c(C(=O)NCCN2CCC(F)(F)C2)ccc2nn(CC3CCN(C(=O)c4ccc(Cl)cc4)CC3)cc12 [Example 69, 2-{[1-(4-chlorobenzoyl)piperidin-4-yl]methyl}-N-[2-(3,3-difluoropyrrolidin-1-yl)ethyl]-4-methyl-2H-indazol-5-carboxamide] |  | xxx (xxx > 100) | 0.029 µM |
| COCCNC(=O)c1ccc2nn(CC3CN(C(=O)c4ccc(Cl)c(C(F)(F)F)c4)C3)cc2c1OC [Example 256, 2-({1-[4-chloro-3-(trifluoromethyl)benzoyl]azetidin-3-yl}methyl)-4-methoxy-N-(2-methoxyethyl)-2H-indazol-5-carboxamide] | xxx (xxx > 100) |  | 0.107 µM |
| COCCNC(=O)c1ccc2nn(CC3CN(C(=O)c4ccc(SC(F)(F)F)cc4)C3)cc2c1C [Example 118, N-(2-methoxyethyl)-4-methyl-2-[(1-{4-[(trifluoromethyl)sulphanyl]benzoyl}azetidin-3-yl)methyl]-2H-indazol-5-carboxamide] |  | xxx (xxx > 100) | 0.00817 µM |
| Cc1c(C(=O)NCCN2CCC(F)(F)C2)ccc2nn(CC3CCN(C(=O)c4ccc(SC(F)(F)F)cc4)CC3)cc12 [Example 70, N-[2-(3,3-difluoropyrrolidin-1-yl)ethyl]-4-methyl-2-[(1-{4-[(trifluoromethyl)sulphanyl]benzoyl}piperidin-4-yl)methyl]-2H-indazol-5-carboxamide] |  | xxx (xxx > 100) | 0.049 µM |
| COCCNC(=O)c1ccc2nn(CC3CN(C(=O)c4ccc(C(F)(F)F)cc4F)C3)cc2c1C [Example 120, 2-({1-[2-fluoro-4-(trifluoromethyl)benzoyl]azetidin-3-yl}methyl)-N-(2-methoxy-ethyl)-4-methyl-2H-indazol-5-carboxamide] |  | xxx (xxx > 100) | 0.0155 µM |
